Like-named read-outs stand apart in the source and are kept apart here.
Tested on: B9 cells

CCCS(=O)(=O)Nc1ccc(F)c(C(=O)c2c[nH]c3ncc(-c4ccc(Cl)cc4)cc23)c1F [vemurafenib]
probe 1416811_s_at response, Ctla2a /// Ctla2b (cytotoxic T lymphocyte-associated protein 2 alpha /// cytotoxic T lymphocyte-associated protein 2 beta): 1.92
probe 1452352_at response, Ctla2b (cytotoxic T lymphocyte-associated protein 2 beta): 2.37
expression of gene probe 1416454_s_at (Acta2) (B9 cells, Repl. 1): 0.23
expression of gene probe 1416612_at (Cyp1b1) (B9 cells, Repl. 1): 0.19
expression of gene probe 1418240_at (Gbp2) (B9 cells, Repl. 1): 0.30
expression of gene probe 1418497_at (Fgf13) (B9 cells, Repl. 1): 0.39
expression of gene probe 1419089_at (Timp3) (B9 cells, Repl. 1): 0.26
expression of gene probe 1427183_at (Efemp1) (B9 cells, Repl. 1): 0.30
expression of gene probe 1427747_a_at (Lcn2) (B9 cells, Repl. 1): 0.36
expression of gene probe 1435906_x_at (Gbp2) (B9 cells, Repl. 1): 0.21
expression of gene probe 1438931_s_at (LOC100047324 /// Sesn1) (B9 cells, Repl. 1): 0.35
expression of gene probe 1438988_x_at (Hn1) (B9 cells, Repl. 1): 0.26
expression of gene probe 1440147_at (Lgi2) (B9 cells, Repl. 1): 0.34
expression of gene probe 1448734_at (Cp) (B9 cells, Repl. 1): 0.31
expression of gene probe 1449227_at (Ch25h) (B9 cells, Repl. 1): 0.25
expression of gene probe 1449335_at (Timp3) (B9 cells, Repl. 1): 0.24
expression of gene probe 1449340_at (Sostdc1) (B9 cells, Repl. 1): 0.17
expression of gene probe 1449815_a_at (Ssbp2) (B9 cells, Repl. 1): 0.38
expression of gene probe 1450618_a_at (Sprr2a) (B9 cells, Repl. 1): 0.36
expression of gene probe 1460250_at (Sostdc1) (B9 cells, Repl. 1): 0.23
expression of gene probe 1416454_s_at (Acta2) (B9 cells, Repl. 2): 0.20
expression of gene probe 1416612_at (Cyp1b1) (B9 cells, Repl. 2): 0.16
expression of gene probe 1418240_at (Gbp2) (B9 cells, Repl. 2): 0.28
expression of gene probe 1418497_at (Fgf13) (B9 cells, Repl. 2): 0.38
expression of gene probe 1419089_at (Timp3) (B9 cells, Repl. 2): 0.31
expression of gene probe 1427183_at (Efemp1) (B9 cells, Repl. 2): 0.37
expression of gene probe 1427747_a_at (Lcn2) (B9 cells, Repl. 2): 0.35
expression of gene probe 1435906_x_at (Gbp2) (B9 cells, Repl. 2): 0.30
expression of gene probe 1438931_s_at (LOC100047324 /// Sesn1) (B9 cells, Repl. 2): 0.33
expression of gene probe 1438988_x_at (Hn1) (B9 cells, Repl. 2): 0.27
expression of gene probe 1440147_at (Lgi2) (B9 cells, Repl. 2): 0.38
expression of gene probe 1448734_at (Cp) (B9 cells, Repl. 2): 0.30
expression of gene probe 1449227_at (Ch25h) (B9 cells, Repl. 2): 0.29
expression of gene probe 1449335_at (Timp3) (B9 cells, Repl. 2): 0.36
expression of gene probe 1449340_at (Sostdc1) (B9 cells, Repl. 2): 0.20
expression of gene probe 1449815_a_at (Ssbp2) (B9 cells, Repl. 2): 0.38
expression of gene probe 1450618_a_at (Sprr2a) (B9 cells, Repl. 2): 0.41
expression of gene probe 1460250_at (Sostdc1) (B9 cells, Repl. 2): 0.20
probe 1415828_a_at response, Serp1 (stress-associated endoplasmic reticulum protein 1) (Repl. 1, B9 cells): 2.05
probe 1415936_at response, Bcar3 (breast cancer anti-estrogen resistance 3) (Repl. 1, B9 cells): 2.21
probe 1416129_at response, Errfi1 (ERBB receptor feedback inhibitor 1) (Repl. 1, B9 cells): 3.31
probe 1416246_a_at response, Coro1a (coronin, actin binding protein 1A) (Repl. 1, B9 cells): 1.90
probe 1416325_at response, Crisp 1 (cysteine-rich secretory protein 1) (Repl. 1, B9 cells): 5.15
probe 1416401_at response, Cd82 (CD82 antigen) (Repl. 1, B9 cells): 2.87
probe 1416488_at response, Ccng2 (cyclin G2) (Repl. 1, B9 cells): 2.23
probe 1416527_at response, Rab32 (RAB32, member RAS oncogene family) (Repl. 1, B9 cells): 0.42
probe 1416811_s_at response, Ctla2a /// Ctla2b (cytotoxic T lymphocyte-associated protein 2 alpha /// cytotoxic T lymphocyte-associated protein 2 beta) (Repl. 1, B9 cells): 2.28
probe 1417065_at response, Egr1 (early growth response 1) (Repl. 1, B9 cells): 4.13
probe 1417130_s_at response, Angptl4 (angiopoietin-like 4) (Repl. 1, B9 cells): 3.10
probe 1417328_at response, Ercc1 (excision repair cross-complementing rodent repair deficiency, complementation group 1) (Repl. 1, B9 cells): 2.20
probe 1417488_at response, Fosl1 (fos-like antigen 1) (Repl. 1, B9 cells): 2.09
probe 1417494_a_at response, Cp (ceruloplasmin) (Repl. 1, B9 cells): 0.39
probe 1417495_x_at response, Cp (ceruloplasmin) (Repl. 1, B9 cells): 0.48
probe 1417533_a_at response, Itgb5 (integrin beta 5) (Repl. 1, B9 cells): 0.50
probe 1417625_s_at response, Cxcr7 (chemokine (C-X-C motif) receptor 7) (Repl. 1, B9 cells): 2.03
probe 1417677_at response, Opn3 (opsin 3) (Repl. 1, B9 cells): 2.18
probe 1417812_a_at response, Lamb3 (laminin, beta 3) (Repl. 1, B9 cells): 2.60
probe 1417837_at response, Phlda2 (pleckstrin homology-like domain, family A, member 2) (Repl. 1, B9 cells): 2.26
probe 1417902_at response, Slc19a2 (solute carrier family 19 (thiamine transporter), member 2) (Repl. 1, B9 cells): 2.00
probe 1417962_s_at response, Ghr (growth hormone receptor) (Repl. 1, B9 cells): 2.19
probe 1418349_at response, Hbegf (heparin-binding EGF-like growth factor) (Repl. 1, B9 cells): 3.29
probe 1418350_at response, Hbegf (heparin-binding EGF-like growth factor) (Repl. 1, B9 cells): 2.66
probe 1418538_at response, Kdelr3 (KDEL (Lys-Asp-Glu-Leu) endoplasmic reticulum protein retention receptor 3) (Repl. 1, B9 cells): 2.08
probe 1418539_a_at response, Ptpre (protein tyrosine phosphatase, receptor type, E) (Repl. 1, B9 cells): 1.94
probe 1419149_at response, Serpine1 (serine (or cysteine) peptidase inhibitor, clade E, member 1) (Repl. 1, B9 cells): 2.13
probe 1419188_s_at response, Ccl27a /// Gm13306 (chemokine (C-C motif) ligand 27A /// predicted gene 13306) (Repl. 1, B9 cells): 2.62
probe 1419317_x_at response, Lce3c (late cornified envelope 3C) (Repl. 1, B9 cells): 2.53
probe 1419322_at response, Fgd6 (FYVE, RhoGEF and PH domain containing 6) (Repl. 1, B9 cells): 2.60
probe 1419529_at response, Il23a (interleukin 23, alpha subunit p19) (Repl. 1, B9 cells): 2.84
probe 1419671_a_at response, Il17rc (interleukin 17 receptor C) (Repl. 1, B9 cells): 0.49
probe 1419722_at response, Klk8 (kallikrein related-peptidase 8) (Repl. 1, B9 cells): 2.02
probe 1419816_s_at response, Errfi1 (ERBB receptor feedback inhibitor 1) (Repl. 1, B9 cells): 3.87
probe 1420352_at response, Prss22 (protease, serine, 22) (Repl. 1, B9 cells): 3.07
probe 1420380_at response, Cc12 (chemokine (C-C motif) ligand 2) (Repl. 1, B9 cells): 0.37
probe 1420407_at response, Ltb4r1 (leukotriene B4 receptor 1) (Repl. 1, B9 cells): 2.29
probe 1420450_at response, Mmp10 (matrix metallopeptidase 10) (Repl. 1, B9 cells): 3.42
probe 1420537_at response, Kctd4 (potassium channel tetramerisation domain containing 4) (Repl. 1, B9 cells): 2.36
probe 1420760_s_at response, Ndrg1 (N-myc downstream regulated gene 1) (Repl. 1, B9 cells): 1.90
probe 1420913_at response, Slco2a1 (solute carrier organic anion transporter family, member 2a1) (Repl. 1, B9 cells): 1.92
probe 1420955_at response, Vsnl1 (visinin-like 1) (Repl. 1, B9 cells): 0.38
probe 1421134_at response, Areg (amphiregulin) (Repl. 1, B9 cells): 4.28
probe 1421269_at response, Ugcg (UDP-glucose ceramide glucosyltransferase) (Repl. 1, B9 cells): 2.46
probe 1421279_at response, Lamc2 (laminin, gamma 2) (Repl. 1, B9 cells): 2.23
probe 1421403_at response, Pi15 (peptidase inhibitor 15) (Repl. 1, B9 cells): 2.04
probe 1421551_s_at response, Ifi202b (interferon activated gene 202B) (Repl. 1, B9 cells): 3.58
probe 1421668_x_at response, Speer3 (spermatogenesis associated glutamate (E)-rich protein 3) (Repl. 1, B9 cells): 2.74
probe 1421679_a_at response, Cdkn1a (cyclin-dependent kinase inhibitor 1A (P21)) (Repl. 1, B9 cells): 4.27
probe 1421888_x_at response, Aplp2 (amyloid beta (A4) precursor-like protein 2) (Repl. 1, B9 cells): 0.65
probe 1421943_at response, Tgfa (transforming growth factor alpha) (Repl. 1, B9 cells): 1.93
probe 1422028_a_at response, Ets1 (E26 avian leukemia oncogene 1, 5′ domain) (Repl. 1, B9 cells): 2.13
probe 1422101_at response, Tnfrsf23 (tumor necrosis factor receptor superfamily, member 23) (Repl. 1, B9 cells): 2.04
probe 1422138_at response, Plau (plasminogen activator, urokinase) (Repl. 1, B9 cells): 2.73
probe 1422139_at response, Plau (plasminogen activator, urokinase) (Repl. 1, B9 cells): 2.45
probe 1422222_at response, Ivl (involucrin) (Repl. 1, B9 cells): 2.50
probe 1422240_s_at response, Sprr2h (small proline-rich protein 2H) (Repl. 1, B9 cells): 1.95
probe 1422273_at response, Mmp1b (matrix metallopeptidase 1b (interstitial collagenase)) (Repl. 1, B9 cells): 3.30
probe 1422324_a_at response, Pthlh (parathyroid hormone-like peptide) (Repl. 1, B9 cells): 2.11
probe 1422537_a_at response, Id2 (inhibitor of DNA binding 2) (Repl. 1, B9 cells): 0.53
probe 1422771_at response, Smad6 (MAD homolog 6 (Drosophila)) (Repl. 1, B9 cells): 0.46
probe 1422924_at response, Tnfsf9 (tumor necrosis factor (ligand) superfamily, member 9) (Repl. 1, B9 cells): 2.01
probe 1423017_a_at response, Il1rn (interleukin 1 receptor antagonist) (Repl. 1, B9 cells): 2.63
probe 1423543_at response, Swap70 (SWA-70 protein) (Repl. 1, B9 cells): 1.88
probe 1423597_at response, Atp8a1 (ATPase, aminophospholipid transporter (APLT), class I, type 8A, member 1) (Repl. 1, B9 cells): 2.02
probe 1423635_at response, Bmp2 (bone morphogenetic protein 2) (Repl. 1, B9 cells): 2.41
probe 1423690_s_at response, Gpsm1 (G-protein signalling modulator 1 (AGS3-like, C. elegans)) (Repl. 1, B9 cells): 3.37
probe 1423933_a_at response, 1600029D21Rik (RIKEN cDNA 1600029D21 gene) (Repl. 1, B9 cells): 2.06
probe 1424022_at response, Osgin1 (oxidative stress induced growth inhibitor 1) (Repl. 1, B9 cells): 2.27
probe 1424090_at response, Sdcbp2 (syndecan binding protein (syntenin) 2) (Repl. 1, B9 cells): 4.08
probe 1424306_at response, Elovl4 (elongation of very long chain fatty acids (FEN1/Elo2, SUR4/Elo3, yeast)-like 4) (Repl. 1, B9 cells): 2.51
probe 1424383_at response, Tmem51 (transmembrane protein 51) (Repl. 1, B9 cells): 2.58
probe 1424471_at response, Rapgef3 (Rap guanine nucleotide exchange factor (GEF) 3) (Repl. 1, B9 cells): 2.18
probe 1424638_at response, Cdkn1a (cyclin-dependent kinase inhibitor 1A (P21)) (Repl. 1, B9 cells): 2.76
probe 1424783_a_at response, Ugt1a1 /// Ugt1a10 /// Ugt1a2 /// Ugt1a5 /// Ugt1a6a /// Ugt1a6b /// Ugt1aTc /// Ugt1a9 (UDP glucuronosyltransferase 1 family) (Repl. 1, B9 cells): 0.39
probe 1425452_s_at response, Fam84a (family with sequence similarity 84, member A) (Repl. 1, B9 cells): 2.41
probe 1425660_at response, Btbd3 (BTB (POZ) domain containing 3) (Repl. 1, B9 cells): 2.08
probe 1426037_a_at response, Rgs16 (regulator of G-protein signaling 16) (Repl. 1, B9 cells): 3.19
probe 1426181_a_at response, I124 (interleukin 24) (Repl. 1, B9 cells): 5.52
probe 1426260_a_at response, Ugt1a1 /// Ugt1a10 /// Ugt1a2 /// Ugt1a5 /// Ugt1a6a /// Ugt1a6b /// Ugt1aTc /// Ugt1a9 (UDP glucuronosyltransferase 1 family) (Repl. 1, B9 cells): 0.39

From patent US10421761B2, “Compounds for kinase modulation, and indications therefor” (Plexxikon Inc., priority 2013, dated 2019)
